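Protocol summary: plate cells (96-well), add compound at 5 concentrations, incubate 48 h, interpolate endpoints linearly. The concentration for 50% growth inhibition is given as GI50. TGI: total growth inhibition.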
What was measured:
Assay in all cases: NCI-60 cell line screen, 48 h
[1] = test system: A498 renal
[2] = test system: A549 NSCLC
[3] = test system: ACHN renal
[4] = test system: BT-549 breast
[5] = test system: CAKI-1 renal
[6] = test system: CCRF-CEM leukemia
[7] = test system: DU-145 prostate
[8] = test system: EKVX NSCLC
[9] = test system: HCC-2998 colon
[10] = test system: HCT-116 colon
[11] = test system: HCT-15 colon
[12] = test system: HL-60(TB) leukemia
[13] = test system: HOP-62 NSCLC
[14] = test system: HOP-92 NSCLC
[15] = test system: HS 578T breast
[16] = test system: IGROV1 ovarian
[17] = test system: K-562 leukemia
[18] = test system: KM12 colon
[19] = test system: LOX IMVI melanoma
[20] = test system: M14 melanoma
[21] = test system: MALME-3M melanoma
[22] = test system: MCF7 breast
[23] = test system: MDA-MB-231 breast
[24] = test system: MDA-MB-435
[25] = test system: MDA-MB-468 breast
[26] = test system: MOLT-4 leukemia
[27] = test system: NCI-H226 lung
[28] = test system: NCI-H23 lung
[29] = test system: NCI-H460 lung
[30] = test system: NCI-H522 lung
[31] = test system: NCI/ADR-RES ovarian
[32] = test system: OVCAR-3 ovarian
[33] = test system: OVCAR-4 ovarian
[34] = test system: OVCAR-5 ovarian
[35] = test system: OVCAR-8 ovarian
[36] = test system: PC-3 prostate
[37] = test system: RPMI-8226 leukemia
[38] = test system: RXF 393 renal
[39] = test system: SF-268 CNS
[40] = test system: SF-295 CNS
[41] = test system: SF-539 CNS
[42] = test system: SK-MEL-2 melanoma
[43] = test system: SK-MEL-28 melanoma
[44] = test system: SK-MEL-5 melanoma
[45] = test system: SK-OV-3 ovarian
[46] = test system: SN12C renal
[47] = test system: SNB-19 CNS
[48] = test system: SNB-75 CNS
[49] = test system: SR leukemia
[50] = test system: SW-620 colon
[51] = test system: T-47D breast
[52] = test system: TK-10 renal
[53] = test system: U251 CNS
[54] = test system: UACC-257 melanoma
[55] = test system: UACC-62 melanoma
[56] = test system: UO-31 renal

CCN1CCN(Cc2ccc(C(=O)Nc3cccc(Nc4ccc5c(OC)cccc5n4)c3)cc2C(F)(F)F)CC1
GI50 [1]: 11800 nM
TGI [1]: 24900 nM
GI50 [2]: 2500 nM
TGI [2]: 11400 nM
GI50 [3]: 1850 nM
TGI [3]: 4320 nM
GI50 [4]: 5350 nM
TGI [4]: 17400 nM
GI50 [5]: 1460 nM
TGI [5]: 3190 nM
GI50 [6]: 1970 nM
TGI [6]: 5380 nM
GI50 [7]: 2550 nM
TGI [7]: 9250 nM
GI50 [8]: 4060 nM
TGI [8]: 15300 nM
GI50 [9]: 1590 nM
TGI [9]: 2890 nM
GI50 [10]: 1450 nM
TGI [10]: 2640 nM
GI50 [11]: 1580 nM
TGI [11]: 3290 nM
GI50 [12]: 1570 nM
TGI [12]: 4840 nM
GI50 [13]: 3670 nM
TGI [13]: 17600 nM
GI50 [14]: 1580 nM
TGI [14]: 5270 nM
GI50 [15]: 1960 nM
TGI [15]: 6980 nM
GI50 [16]: 3090 nM
TGI [16]: 11200 nM
GI50 [17]: 2110 nM
TGI [17]: 86800 nM
GI50 [18]: 2200 nM
TGI [18]: 5620 nM
GI50 [19]: 1450 nM
TGI [19]: 2650 nM
GI50 [20]: 1470 nM
TGI [20]: 2720 nM
GI50 [21]: 1440 nM
TGI [21]: 2630 nM
GI50 [22]: 1500 nM
TGI [22]: 3500 nM
GI50 [23]: 1540 nM
TGI [23]: 3050 nM
GI50 [24]: 1360 nM
TGI [24]: 2820 nM
GI50 [25]: 1600 nM
TGI [25]: 4530 nM
GI50 [26]: 1230 nM
TGI [26]: 5050 nM
GI50 [27]: 5520 nM
TGI [27]: 18300 nM
GI50 [28]: 2370 nM
TGI [28]: 7030 nM
GI50 [29]: 1470 nM
TGI [29]: 2800 nM
GI50 [30]: 1700 nM
TGI [30]: 3300 nM
GI50 [31]: 2280 nM
TGI [31]: 9030 nM
GI50 [32]: 1800 nM
TGI [32]: 4580 nM
GI50 [33]: 2890 nM
TGI [33]: 13000 nM
GI50 [34]: 3280 nM
TGI [34]: 12700 nM
GI50 [35]: 6780 nM
TGI [35]: 18400 nM
GI50 [36]: 2140 nM
TGI [36]: 6260 nM
GI50 [37]: 2240 nM
TGI [37]: 6670 nM
GI50 [38]: 1630 nM
TGI [38]: 5000 nM
GI50 [39]: 2170 nM
TGI [39]: 9910 nM
GI50 [40]: 1520 nM
TGI [40]: 2970 nM
GI50 [41]: 1370 nM
TGI [41]: 2540 nM
GI50 [42]: 10700 nM
TGI [42]: 23800 nM
GI50 [43]: 1560 nM
TGI [43]: 2870 nM
GI50 [44]: 1450 nM
TGI [44]: 2780 nM
GI50 [45]: 12600 nM
TGI [45]: 27200 nM
GI50 [46]: 3620 nM
TGI [46]: 14800 nM
GI50 [47]: 1650 nM
TGI [47]: 3620 nM
GI50 [48]: 1200 nM
TGI [48]: 8390 nM
GI50 [49]: 1870 nM
TGI [49]: 4670 nM
GI50 [50]: 1450 nM
TGI [50]: 2730 nM
GI50 [51]: 2110 nM
TGI [51]: 8140 nM
GI50 [52]: 8670 nM
TGI [52]: 22100 nM
GI50 [53]: 1690 nM
TGI [53]: 3470 nM
GI50 [54]: 1510 nM
TGI [54]: 2850 nM
GI50 [55]: 1530 nM
TGI [55]: 2830 nM
GI50 [56]: 2330 nM
TGI [56]: 9270 nM

Reference: PubChem BioAssay (NCI)
